This is an account of results in patent US20070197543A1, “Use of derivatives of 2, 5-dihydroxyb enzene-sulphonic acids in the elaboration of a medicinal product to enhance the effect of other drugs used for the treatment of erectile dysfunction” (Laboratorios del Dr. Esteve, S.A., priority 2001, published 2007).

Molecules are shown by their SMILES.

The conditions of assay [1]: patients; variable in different patients; cited from earlier work.
The test system of assay [2] is resistance arteries of the human penis. The assay can be described thus: Relaxation of noradrenaline-contracted human penile resistance arteries induced by sodium nitroprussiate (myograph). The conditions noted are these: 10 μM; arteries contracted with 1 μM noradrenaline; FIG. 1. As for the experimental part:
(§1) To study the enhancing effect of medicinal products used to facilitate penile erection in man a series of studies were carried out of the resistance arteries of the human penis, obtained from patients submitted to penile prosthesis implantation.
(§2) Specimens of human cavernous bodies of the penis were obtained from patients with impotence while these were intervened for prosthetic implantation, as described previously (Gupta et al.; Br. J. Pharmacol., 116: 2201, 1995). The tissues were deposited in M-400 solution (pH 7.4; 400 mOsm/kg. Composition in w/v: 4.19% manitole, 0.2% KH2PO4, 0.97% K2HPO4.3 H2O, 0.11% KCl and 0.08% NaHCO3) at 4° C. at the moment of explant and were transported to the laboratory to be used within the following 16 h.
(§3) The resistance arteries of the penis, helicine arteries (with a luminal diameter of 150-400 μm), which are terminal branches of the deep arteries of the penis, were dissected carefully removing the surrounding trabecular tissue and were cut into 2 mm long arterial segments that were arranged on two wires of 40 μm diameter in a Halpern-Mulvany myograph (J.P. Trading, Aarhus, Denmark) to record […]. […] The arteries were contracted with 1 μM of noradrenaline and their relaxation responses were assessed after adding to the cavities increasing amounts of the different compounds. […]

Assay [3] has the same test system. Kind of assay: Relaxation of noradrenaline-contracted human penile resistance arteries induced by sildenaphyl (myograph). To be noted: 10 μM; arteries contracted with 1 μM noradrenaline; FIG. 2. As for the experimental part: as §1, §2, §3
Assay [4] relates to nitrergic terminations in resistance arteries of the human penis. Kind of assay: Relaxation of human penile resistance arteries induced by transmural electrical stimulation of nitrergic terminations (myograph). As for the experimental part:
as §1, §2, §3

Take `CCCc1nn(C)c2c(=O)[nH]c(-c3cc(S(=O)(=O)N4CCN(C)CC4)ccc3OCC)nc12` [sildenaphyl]: in assay [1], the therapeutic response is reported as at most 50%.
Consider `O=S(=O)([O-])c1cc(O)ccc1O.O=S(=O)([O-])c1cc(O)ccc1O.[Ca+2]` [Calcium dobesylate, Calcium 2,5-dihidroxybenzenosulphonate], for which the “effect on the relaxation produced by different concentrations of sodium nitroprussiate (SNP)” value in assay [2] is reported as “increases, in a statistically significant manner, the relaxation”. For the same compound, the “effect on the relaxation produced by different concentrations of sildenaphyl” value in assay [3] was “increases, in a statistically significant manner, the relaxation”. In addition, in assay [4] (10 μM combined with 10 nM sildenaphyl, increasing frequencies, FIG. 4), the “effect on the effects of 10 nM of sildenaphyl on the relaxation produced by electrical stimulation” value is “increases, in a statistically significant manner, the effects of 10 nM of sildenaphyl”. Moreover, in assay [4] (10 μM, TES 0.5, 1, 2 and 6 Hz, FIG. 3), the “effect on the relaxation produced by electrical stimulation at increasing frequencies of the nitrergic terminations” value is “increases, in a statistically significant manner, the relaxation”.
